The text below walks through data of PubChem BioAssay (NCI).

Common to all, as to experiment: NCI anticancer screen, dose series, 48 h
In assay [1] the test system is OVCAR-4 ovarian.
Assay [2] has as its system CAKI-1 renal.
Assay [3] has as its system SNB-19 CNS.
The test system of assay [4] is BT-549 breast.
The subject of assay [5] is UACC-62 melanoma.
The subject of assay [6] is UACC-257 melanoma.
In assay [7] the test system is ACHN renal.
Assay [8] concerns A549 NSCLC.
For assay [9], the system named is SN12C renal.
The subject of assay [10] is SK-OV-3 ovarian.

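Briefly, cells in 96-well plates were exposed to five compound concentrations for 48 h, and endpoints were estimated by linear interpolation. The concentration for 50% growth inhibition is given as GI50. TGI: total growth inhibition.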

As for `COc1ccc(-n2nc(C)c3c(Nc4ccc(NC(=O)Nc5ccc(Cl)c(C(F)(F)F)c5)cc4)ncnc32)cc1`, the GI50 in assay [1] was 2.85 µM; in assay [2] it was 1.51 µM; in assay [3] it was 2.49 µM; in assay [4], 2.08 µM; in assay [5], 1.78 µM; in assay [6] it was 1.88 µM. Moreover, the GI50 in [7] is 1.64 µM; in assay [8], 1.88 µM; in [9], 2.63 µM; in assay [10] it was 2.42 µM. Besides, the TGI is more than 100 µM in [1]; 3.51 µM in assay [2]; 7.88 µM in assay [3]; 6.34 µM in assay [4]; 3.74 µM in assay [5]; 4.66 µM in assay [6]. Besides, the TGI was determined as 6.86 µM in assay [7], 6.31 µM in [8], 9.37 µM in [9] and 6.27 µM in assay [10].
For the molecule `Cc1cc(C)nc(NS(=O)(=O)c2ccc(NC(=O)c3cccc4c(NNc5ccc(S(=O)(=O)N=C(N)N)cc5)c5ccccc5nc34)cc2)n1`, the TGI in assay [1], in assay [2], in assay [3], in [4], in [5] and in assay [6] was more than 50 µM in each case. In addition, the TGI in [7], in assay [8], in [9] and in assay [10] was more than 50 µM each time.
Consider `CCNc1ncnc2sc(SCc3ccccc3)nc12`, for which the TGI in assay [1], in [2], in assay [3], in assay [4], in [6] and in assay [7] was more than 100 µM throughout. In addition, the TGI in assay [8], in assay [9] and in assay [10] was more than 100 µM each time.
On to `Cc1c(-c2ccccc2)[nH]n(C2=NCCN2)c1=O`, for which the TGI in [1], in assay [2], in assay [3], in assay [4], in assay [5] and in [6] was more than 100 µM throughout. The TGI in assay [7], in [8] and in [10] was more than 100 µM throughout.
Turning to `COC(=O)N1N=C(c2ccccc2)C1c1ccccc1` (stereo not given), the TGI is more than 100 µM in assay [1]; more than 100 µM in [2]; more than 100 µM in [3]; more than 100 µM in [4]; 63.3 µM in assay [5]; 77.4 µM in assay [6]. Also, the TGI in assay [8], in assay [9] and in assay [10] was more than 100 µM each time.
For `Nc1nc(Nc2ccccc2)sc1C(=O)c1ccco1`, the TGI in assay [1] came out at 50.5 µM; in [3], 50.9 µM; in [4] it was 54.3 µM; in assay [5] it was 40.1 µM; in assay [6], 68.9 µM; in assay [7], 62.2 µM. Also, the TGI in assay [8] turned out to be 43.2 µM; in assay [9], 39.5 µM; in [10], 93.6 µM.
For `CCOC(=O)c1c(SCCN2CCOCC2)n(-c2ccccc2)c(=S)n(-c2ccccc2)c1=O`, the TGI in [1] is more than 100 µM; in assay [3], more than 100 µM; in assay [4], more than 100 µM; in [5], more than 100 µM; in [6] it was 48.1 µM; in [7] it was more than 100 µM. The TGI in [8] and in assay [9] was more than 100 µM throughout.
As to `CCOC(=O)C1=CC(C)(C(=O)OCC)Nc2c(nc(N)[nH]c2=O)N1` (stereo not given), the TGI in assay [1], in assay [2], in [3], in assay [4], in assay [6] and in [7] was more than 10 µM throughout. Besides, the TGI in assay [8], in [9] and in assay [10] was more than 10 µM throughout.
For the molecule `CCN(CC)CCO/N=C1\CC[C@H]2[C@@H]3CCc4cc(OC)ccc4[C@H]3CC[C@]12C`, the TGI is 22.4 µM in assay [1]; 2.13 µM in [2]; 25 µM in assay [3]; 19 µM in assay [4]; 2.02 µM in [5]; 2.54 µM in assay [6]. For the same molecule, the TGI in assay [7] is 13.2 µM; in [8], 6.96 µM; in assay [9] it was 8.12 µM.
Regarding `CC1(C)OC2COC3([C@@H]4OC(C)(C)O[C@@H]4CO)OC(C)(C)OC3C2O1` (stereo not given in full), the TGI in [1], in [2], in assay [3], in [4], in [5] and in assay [6] was more than 100 µM throughout. Also, the TGI in assay [7], in assay [8] and in assay [9] was more than 100 µM throughout.
Turning to `COc1cc2[nH]c(-c3ccccc3)cc(=O)c2c(OC)c1OC`, the TGI in assay [1], in [3], in assay [4], in assay [5], in [6] and in [7] was more than 100 µM each time. In addition, the TGI in assay [8], in assay [9] and in assay [10] was more than 100 µM throughout.
